Assays:
Type in all cases: biochemical
[1] = target: T1, Ph1615 (GH117) (Paraglaciecola hydrolytica, UniProt A0A136A0T3); experiment: TLC of hydrolysis products, crude recombinant lysate; conditions: 25 °C overnight, pH 8
T1 construct: gene AX660_11560; full gene without any predicted signal peptide, pET9a-USER vector (octa-His tag), E. coli BL21(DE3) crude lysate
T1 sequence (A0A136A0T3 1-359): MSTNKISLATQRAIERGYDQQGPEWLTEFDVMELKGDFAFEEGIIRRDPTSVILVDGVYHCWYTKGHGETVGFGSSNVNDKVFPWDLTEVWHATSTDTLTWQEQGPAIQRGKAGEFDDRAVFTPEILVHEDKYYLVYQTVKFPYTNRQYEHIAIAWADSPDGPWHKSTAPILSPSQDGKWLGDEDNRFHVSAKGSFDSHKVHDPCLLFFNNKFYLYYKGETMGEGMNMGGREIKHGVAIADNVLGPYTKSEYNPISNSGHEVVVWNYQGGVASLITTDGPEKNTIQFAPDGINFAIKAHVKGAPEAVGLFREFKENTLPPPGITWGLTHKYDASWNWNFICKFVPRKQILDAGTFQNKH

[2] = target: T2, Ph1631 (GH16) (Paraglaciecola hydrolytica, UniProt A0A136A0U8); experiment: TLC of hydrolysis products from agarose, crude recombinant lysate; conditions: 25 °C overnight, pH 8; agarose 0.05% w/v
T2 construct: gene AX660_11645; full gene without any predicted signal peptide, pET22b NdeI/XhoI, E. coli BL21(DE3) crude lysate
T2 sequence (A0A136A0U8 20-293): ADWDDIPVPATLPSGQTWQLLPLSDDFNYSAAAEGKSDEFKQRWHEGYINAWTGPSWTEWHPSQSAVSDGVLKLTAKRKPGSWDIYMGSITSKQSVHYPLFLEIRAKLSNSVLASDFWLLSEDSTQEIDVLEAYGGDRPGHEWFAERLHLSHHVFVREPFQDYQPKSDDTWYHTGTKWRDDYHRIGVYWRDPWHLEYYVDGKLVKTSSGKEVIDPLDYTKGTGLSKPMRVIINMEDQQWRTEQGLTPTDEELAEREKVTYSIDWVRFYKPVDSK

[3] = target: T3, Ph1657 (GH42-like) (Paraglaciecola hydrolytica, UniProt A0A136A0V1); experiment: FACE (AMAC label) of hydrolysis products, crude recombinant lysate; conditions: 25 °C overnight, pH 8, oligosaccharide 2 μg/μL
T3 construct: gene AX660_11775; full gene without any predicted signal peptide, pET9a-USER vector (octa-His tag), E. coli BL21(DE3) crude lysate
T3 sequence (A0A136A0V1 21-810): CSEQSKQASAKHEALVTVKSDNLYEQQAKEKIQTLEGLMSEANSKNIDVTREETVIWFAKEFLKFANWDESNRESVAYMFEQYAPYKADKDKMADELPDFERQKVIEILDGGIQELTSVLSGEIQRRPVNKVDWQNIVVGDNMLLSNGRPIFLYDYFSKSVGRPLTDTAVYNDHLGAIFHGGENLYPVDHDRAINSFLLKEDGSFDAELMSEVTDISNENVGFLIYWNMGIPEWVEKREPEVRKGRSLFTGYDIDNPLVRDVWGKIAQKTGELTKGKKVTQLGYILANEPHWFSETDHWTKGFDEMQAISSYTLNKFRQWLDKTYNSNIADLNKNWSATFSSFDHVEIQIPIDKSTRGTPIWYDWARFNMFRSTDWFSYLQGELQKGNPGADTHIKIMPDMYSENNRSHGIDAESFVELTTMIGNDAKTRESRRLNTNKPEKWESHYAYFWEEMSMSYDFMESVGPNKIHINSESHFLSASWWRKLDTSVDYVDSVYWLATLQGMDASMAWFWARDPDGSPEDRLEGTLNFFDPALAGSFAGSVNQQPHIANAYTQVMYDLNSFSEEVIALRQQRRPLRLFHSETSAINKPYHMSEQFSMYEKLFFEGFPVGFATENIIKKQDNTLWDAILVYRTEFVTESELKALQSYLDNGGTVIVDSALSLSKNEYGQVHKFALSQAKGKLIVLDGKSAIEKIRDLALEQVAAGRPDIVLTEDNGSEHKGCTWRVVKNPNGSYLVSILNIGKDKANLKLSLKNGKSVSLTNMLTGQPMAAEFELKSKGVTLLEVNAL

[4] = target: T4, Ph1675 (GH16) (Paraglaciecola hydrolytica, UniProt A0A136A0W8); experiment: FACE (ANTS label) of hydrolysis products, crude recombinant lysate; conditions: 25 °C overnight, pH 8, lysis buffer with 5 mM CaCl2
T4 construct: gene AX660_11860; full gene without any predicted signal peptide, pET9a-USER vector (octa-His tag), E. coli BL21(DE3) crude lysate
T4 sequence (A0A136A0W8 35-349): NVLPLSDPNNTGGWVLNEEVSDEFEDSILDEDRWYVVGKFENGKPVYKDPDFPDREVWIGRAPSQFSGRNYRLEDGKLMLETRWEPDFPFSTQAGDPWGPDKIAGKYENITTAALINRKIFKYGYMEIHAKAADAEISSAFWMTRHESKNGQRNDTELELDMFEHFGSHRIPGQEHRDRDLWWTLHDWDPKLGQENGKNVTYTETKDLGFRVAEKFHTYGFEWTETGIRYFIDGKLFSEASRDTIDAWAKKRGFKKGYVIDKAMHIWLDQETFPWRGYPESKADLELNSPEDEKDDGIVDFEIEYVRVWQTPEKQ

[5] = target: T5, Ph1664 (GH16) (Paraglaciecola hydrolytica, UniProt A0A136A0V5); experiment: FACE (ANTS label) of hydrolysis products from κ-carrageenan and furcellaran, crude recombinant lysate; conditions: 25 °C overnight, pH 8, 300 mM NaCl, 5 mM MgCl2; polysaccharide 0.05% w/v
T5 construct: gene AX660_11805; full gene without any predicted signal peptide, pET9a-USER vector (octa-His tag), E. coli BL21(DE3) crude lysate
T5 sequence (A0A136A0V5 20-322): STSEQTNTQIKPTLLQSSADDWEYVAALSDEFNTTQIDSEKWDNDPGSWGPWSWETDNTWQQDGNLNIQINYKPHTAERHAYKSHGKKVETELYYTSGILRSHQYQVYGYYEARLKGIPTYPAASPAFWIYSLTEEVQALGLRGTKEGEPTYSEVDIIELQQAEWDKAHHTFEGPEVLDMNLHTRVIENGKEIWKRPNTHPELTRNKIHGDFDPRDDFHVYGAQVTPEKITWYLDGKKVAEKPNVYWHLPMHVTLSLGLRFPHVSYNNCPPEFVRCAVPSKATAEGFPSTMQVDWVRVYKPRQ

`OC[C@H]1OC(O)[C@H](O)[C@@H](O[C@@H]2O[C@H]3CO[C@@H]([C@@H]2O)[C@@H]3O)[C@H]1O` (stereo partly drawn) [neoagarobiose] was tested, and the “TLC of hydrolysis products, crude recombinant lysate” value [1] was “Ph1615 (GH117) was able to hydrolyze neoagarobiose yielding L-AHG and galactose”.
In the case of `OC[C@H]1O[C@@H](O[C@H]2[C@H]3OC[C@@H]2O[C@@H](O[C@H]2[C@@H](O)[C@@H](CO)OC(O)[C@@H]2O)[C@H]3O)[C@H](O)[C@@H](O[C@@H]2O[C@H]3CO[C@@H]([C@@H]2O)[C@@H]3O)[C@H]1O` (stereo partly drawn) [neoagarotetraose], the “TLC of hydrolysis products from agarose, crude recombinant lysate” value [2] is reported as “Ph1631 degraded agarose into primarily neoagarotetraose”.
`O=S(=O)(O)O[C@@H]1[C@H](O[C@H]2O[C@@H]3CO[C@H]([C@H]2O)[C@H]3O[C@@H]2O[C@H](CO)[C@H](O)[C@H](O[C@H]3O[C@@H]4CO[C@@H]([C@H]4O)[C@H]3O)[C@H]2O)[C@@H](O)C(O)O[C@@H]1CO` (stereo partly drawn) [β-κ, β-κ tetrasaccharide] was tested, and the “FACE (AMAC label) of hydrolysis products, crude recombinant lysate” value [3] was “when tested on a commercial β-κ tetrasaccharide, this substrate was indeed hydrolyzed into (β) and (κ)” and the “FACE (ANTS label) of hydrolysis products, crude recombinant lysate” value [4] was “it was found to degrade the substrate into the corresponding β- and κ-carrabiose units”.
In the case of `O=S(=O)(O)O[C@@H]1[C@H](O[C@H]2O[C@@H]3CO[C@@H]([C@H]3O)[C@H]2O)[C@@H](O)C(O)O[C@@H]1CO` (stereo partly drawn) [κ, neo-κ-carrabiose], the “FACE (ANTS label) of hydrolysis products from κ-carrageenan and furcellaran, cru” value [5] is reported as “releasing hydrolysis products corresponding to neo-κ-carrabiose (κ), neo-κ-carratetraose (κ-κ)”.
With `O=S(=O)(O)O[C@@H]1[C@H](O[C@H]2O[C@@H]3CO[C@@H]([C@H]3O)[C@H]2O)[C@@H](O)[C@H](O[C@@H]2[C@@H]3OC[C@H]2O[C@H](O[C@H]2[C@@H](OS(=O)(=O)O)[C@@H](CO)OC(O)[C@@H]2O)[C@@H]3O)O[C@@H]1CO` (stereo partly drawn) [κ-κ, neo-κ-carratetraose] the “FACE (ANTS label) of hydrolysis products from κ-carrageenan and furcellaran, cru” value [5] was “releasing hydrolysis products corresponding to neo-κ-carrabiose (κ), neo-κ-carratetraose (κ-κ)”.

From paper PMC5943477, “A Novel Enzyme Portfolio for Red Algal Polysaccharide Degradation in the Marine Bacterium Paraglaciecola hydrolytica S66^T Encoded in a Sizeable Polysaccharide Utilization Locus” (Frontiers in Microbiology, 2018)
